Test results published in patent US5474988A, “5-phenylpyrrolo-1,4-benzoxazine and 5-phenylpyrrolo-1,4-benzothiazine compounds, process and intermediates for their production and pharmaceutical compositions containing them” (Kali-Chemie Pharma GmbH, priority 1993, dated 1995).

Key:
5-lipoxygenase = experiment: inhibition of 5-lipoxygenase activity in polymorphonuclear rat leucocytes (LTB4 formation); assay type: cell-based; conditions: 10^-5 mol/l; 22° C.
Summary of the method: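 Thioglycolate-elicited peritoneal PMNs from male Sprague-Dawley rats (0.5×10^6 cells) preincubated 15 min at 22 °C with 10 μM compound in HEPES-buffered HBSS, then stimulated with 5 μM calcimycin for 10 min. LTB4 quantified by reverse-phase HPLC at 270 nm; % inhibition versus solvent control.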

[1] = tested on: P.A.F.-induced aggregation of blood platelets; experiment: anti-P.A.F. action in vitro (P.A.F.-induced platelet aggregation); assay type: cell-based; conditions: Oryctolagus cuniculus, 10^-5 mole/liter, read-out: Anti-P.A.F. activity in vitro, % inhibition of the P.A.F.-induced aggregation of blood platelets from rabbit blood
Summary of the method: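 Washed rabbit platelets (4×10^9/ml stock suspension, aspirin-lysine treated) in modified Tyrode buffer pH 7.4 with 1.3 mM CaCl2 and gelatine; test substance at 10^-5 mol/l final, 90 s preincubation before P.A.F. Aggregation followed 4-5 min by aggregometer; % inhibition of P.A.F.-induced aggregation increase calculated.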

Row | Compound | In vitro inhibitory activity on LTB4 formation in rat PMNs stimulated by calcium ionophore A23187 (5-lipoxygenase) [%] | inhibition at 10 µM [1] [%]
1 | COc1ccc2c3c1c(C)c(-c1ccc(O)cc1)n3CC(CCN1CCN(c3cc(C)ccn3)CC1)O2 (centres unmarked) [Example 3, 2,3-Dihydro-5-(4-hydroxyphenyl)-7-methoxy-6-methyl-2-[2-(4-(4-methylpyridin-2-yl)piperazin-1-yl)ethyl]pyrrolo[1,2,3-de]-1,4-benzoxazine] | 96 | 92
2 | Cc1ccnc(N2CCN(CCC3Cn4c(-c5ccc(O)cc5)c(C)c5c(O)ccc(c54)O3)CC2)c1 (centres unmarked) [Example 4, 2,3-Dihydro-7-hydroxy-5-(4-hydroxyphenyl)-6-methyl-2-[2-(4-(4-methylpyridin-2-yl)piperazin-1-yl)ethyl]pyrrolo[1,2,3-de]-1,4-benzoxazine] | 100 | 99
3 | Cc1ccnc(N2CCN(C(=O)CCCC3Cn4c(-c5cc(C)c(O)c(C)c5)c(C)c5cccc(c54)O3)CC2)c1 (centres unmarked) [Example 9, 2,3-Dihydro-5-(3,5-dimethyl-4-hydroxyphenyl)-6-methyl-2-[4-(4-(4-methylpyridin-2-yl)piperazin-1-yl)-4-oxobutyl]-pyrrolo[1,2,3-de]-1,4-benzoxazine] | 86 | 67
4 | COc1cc(-c2c(C)c3cccc4c3n2CC(CCN2CCN(c3cc(C)ccn3)CC2)O4)ccc1O (centres unmarked) [Example 12] | 100 | 93
5 | Cc1ccnc(N2CCN(CCC3Cn4c(-c5ccc(O)c(O)c5)c(C)c5cccc(c54)O3)CC2)c1 (centres unmarked) [Example 13] | 98 | 94
6 | Cc1ccnc(N2CCN(C(=O)CCC3Cn4c(-c5ccc(O)cc5)c(C)c5cccc(c54)O3)CC2)c1 (centres unmarked) [Example 15] | 94 | 100
7 | Cc1ccnc(N2CCN(CCC3Cn4c(-c5cc(C)c(O)c(C)c5)c(C)c5cccc(c54)O3)CC2)c1 (centres unmarked) [Example 20] | 75 | 92
8 | Cc1cc(-c2c(C)c3cccc4c3n2CC(CCCC(=O)N2CCN(c3ccccn3)CC2)O4)cc(C)c1O (centres unmarked) [Example 23] | 92 | 66
9 | Cc1ccnc(N2CCN(C(=O)CCC3Cn4c(-c5cc(C)c(O)c(C)c5)c(C)c5cccc(c54)O3)CC2)c1 (centres unmarked) [Example 25] |  | 91
10 | Cc1cc(-c2c(C)c3cccc4c3n2CC(CCC(=O)N2CCN(c3ccccn3)CC2)O4)cc(C)c1O (centres unmarked) [Example 26] | 67 | 82
11 | Cc1cc(-c2c(C)c3c(F)ccc4c3n2CC(CCN2CCN(c3ccccn3)CC2)O4)cc(C)c1O (centres unmarked) [Example 27] | 90 | 
12 | Cc1ccnc(N2CCN(CCC3Cn4c(-c5cc(C)c(O)c(C)c5)c(C)c5c(F)ccc(c54)O3)CC2)c1 (centres unmarked) [Example 28] | 48 | 83
13 | Cc1ccnc(N2CCN(CCCC3Cn4c(-c5cc(C)c(O)c(C)c5)c(C)c5c(F)ccc(c54)O3)CC2)c1 (centres unmarked) [Example 29] |  | 50
14 | Cc1ccc(N2CCN(C(=O)CCC3Cn4c(-c5ccc(O)cc5)c(C)c5cccc(c54)O3)CC2)nc1 (centres unmarked) [Example 34] | 95 | 77
15 | COc1cc(-c2c(C)c3cccc4c3n2CC(CCC(=O)N2CCN(c3ccc(C)cn3)CC2)O4)ccc1O (centres unmarked) [Example 39] | 98 | 
16 | Cc1ccnc(N2CCN(CCC3Cn4c(-c5cc(C)c(O)c(C)c5)c(C)c5cc(F)cc(c54)O3)CC2)c1 (centres unmarked) [Example 42] |  | 40
17 | COc1cc2c3c(c1)c(C)c(-c1cc(C)c(O)c(C)c1)n3CC(CCN1CCN(c3cc(C)ccn3)CC1)O2 (centres unmarked) [Example 43] | 66 | 95
18 | Cc1ccnc(N2CCN(CCC3Cn4c(-c5cc(C)c(O)c(C)c5)c(C)c5cc(O)cc(c54)O3)CC2)c1 (centres unmarked) [Example 44] | 100 | 99
19 | Cc1cc(-c2c(C)c3cccc4c3n2CC(CCCCN2CCN(c3ccccn3)CC2)O4)cc(C)c1O (centres unmarked) [Example 65] | 64 | 52
20 | Cc1ccnc(N2CCN(C(=O)CCC3Cn4c(-c5cc(C)c(O)c(C)c5)c(C)c5c(O)ccc(c54)O3)CC2)c1 (centres unmarked) [Example 67] | 100 | 97
21 | Cc1ccnc(N2CCN(C(=O)CCC3Cn4c(-c5ccc(O)cc5)c(C)c5c(O)ccc(c54)O3)CC2)c1 (centres unmarked) [Example 69] | 100 | 97
22 | Cc1cc(-c2c(C)c3c(O)ccc4c3n2CC(CCC(=O)N2CCN(c3ccccn3)CC2)O4)cc(C)c1O (centres unmarked) [Example 71] | 100 | 84
23 | COc1cc(-c2c(C)c3c(O)ccc4c3n2CC(CCC(=O)N2CCN(c3ccccn3)CC2)O4)cc(C)c1O (centres unmarked) [Example 72] | 100 | 79
24 | Cc1ccnc(N2CCN(CCCC3Cn4c(-c5cc(C)c(O)c(C)c5)c(C)c5c(O)ccc(c54)O3)CC2)c1 (centres unmarked) [Example 73] | 100 | 
25 | Cc1cccnc1N1CCN(CCCC2Cn3c(-c4cc(C)c(O)c(C)c4)c(C)c4c(O)ccc(c43)O2)CC1 (centres unmarked) [Example 74] | 100 | 
26 | Cc1cc(-c2c(C)c3c(OCc4ccccc4)ccc4c3n2CC(CCC(=O)N2CCN(c3ccccn3)CC2)O4)cc(C)c1O (centres unmarked) [Example 75] | 51 | 
